The nature of series [1]: XRPD after 7 days storage at 40° C./75% RH. Format: physicochemical. The protocol: XRPD was again taken after 7 days storage at 40° C./75% RH. Form II of the diethylamine salt and Form II of the ethanolamine salt were formed by conversion of Form I of the respective salts after 7 days storage at 40° C./75% RH.
Form II of the calcium salt was produced from Form I of the calcium salt after 7 days storage at 40° C./75% RH.

The format of series [2] is physicochemical. The conditions noted are these: for XRPD Analysis Post Dissolution: after IDR in faSSGf; for Average pH: during IDR run in 40 ml faSSGf media; for Average pH / IDR Average / IDR Duplicate: 37° C.; for IDR Average / IDR Duplicate: faSSGf media, 3 mm disc, 100 rpm; for IDR Average: average of duplicate; for IDR Duplicate: individual duplicate values. How it is done:
Intrinsic Dissolution Rate was Determined in Simulated Intestinal Fluid at pH Base Buffer (FaSSGF):
Sodium chloride (2.0 g) and deionized water added to a 1000 ml volumetric flask, pH adjusted to 1.6 with concentrated hydrochloric […] acid, made up to volume with deionised water.
Phares SIF (simulated intestinal fluid) powder (0.06 g) was added to a 1 L volumetric flask and made to volume with base buffer.
(§1) Data were collected on a Sirius inform instrument fitted with a dual UV Dip Probe attachment and Ag/AgCI combination pH electrode. The electrode was calibrated using the four plus parameters derived from a blank titration. The base titrant was standardised by titration with TRIS. 0.5 M HCl and NaOH aqueous solutions were used as the acid and base titrants respectively for the testing. Stirring was facilitated by a dual overhead stirrer to allow thorough mixing within the vessel, and media was introduced via a capillary bundle attached to a dispensing bank comprised of six precision dispensing units. A Peltier heating jacket was used to maintain the temperature of the titration vessel. Discs were introduced to the vessel via the tablet picker housed in the probe arm, after the desired temperature of the media had been reached. Sirius inform Assay Design, Control and Refine software were used to design, run and refine data respectively.
One MEC data sets were then collected using five additions each of the water stock using 250, 500 and three times 750 μI aliquots, respectively. UV Spectra were then collected after each addition of the water stock to build a multi-point MEC calibration, using a 20 mm path length probe. The MEC data set was then imported into the dissolution data files in order to convert the UV absorbance measured to concentration. […] MEC data were collected in the dissolution media {faSSGf) and at 37° C. to match the dissolution experiments.
10-20 mg of the sample was compressed in a 3 mm disc recess, under 100 kg for 2 minutes, with greaseproof paper on the compression base, to form nondisintegrating discs. The discs were then plugged with a bung so that only one surface was exposed to the media during analysis and transferred to the Sirius inform dissolution apparatus. Analysis was performed at 37° C. in 40 ml faSSGf media for 1 hour with UV spectra collected every 30 seconds. A stir speed of 100 rpm was used with a 20 mm path length probe. The IDR was calculated based on the surface area of the 3 mm disc recess used (7.07 mm2 surface area). XRPD analysis was performed on all samples, both after compression of the material into the disc recess, and post dissolution analysis to observe any change in form. All analysis was performed using XRPD 2.
(§2) X-Ray Powder Diffraction (XRPD2): XRPD diffractograms were collected on a Bruker AXS C2 GADDS diffractometer using Cu Ka radiation (40 kV, 40 mA), an automated XYZ stage, a laser video microscope for auto sample positioning and a Vantec-500 2-dimensional area detector. X-ray optics consists of a single Gobel multilayer mirror coupled with a pinhole collimator of 0.3 mm. The beam divergence, i.e. the effective size of the X-ray beam on the sample, was approximately 4 mm. […] The sample was exposed to the X-ray beam for 120 seconds under ambient conditions. The software used for data collection and analysis was GADDS for Win7/XP and Diffrac Plus EVA respectively.

Series [3] is classed as physicochemical. Conditions: for XRPD Analysis Post Dissolution: after IDR at pH 4.5; for Average pH: during IDR run, 36 ml water and 4 ml GI media; for Average pH / IDR Average / IDR Duplicate: pH set to 4.5, 37° C.; for IDR Average / IDR Duplicate: 3 mm disc, 100 rpm; for IDR Average: average of duplicate; for IDR Duplicate: individual duplicate values. How it is done:
Intrinsic Dissolution Rate was measure in GI tract buff (pH—4.5 buffer): 2.99 g sodium acetate trihydrate was dissolved in 14.0 ml 2N acetic acid in a 1000 ml volumetric flask, and then made to volume with deionised water.
as §1, with “DipProbe” for “Dip Probe”, “NaOHaqueous” for “NaOH aqueous”
One MEC data sets were then collected using five additions each of the water stock using 250, 500 and three times 750 μI aliquots, respectively. UV Spectra were then collected after each addition of the water stock to build a multi-point MEC calibration, using a 20 mm path length probe. The MEC data set was then imported into the dissolution data files in order to convert the UV absorbance measured to concentration. […] MEC data were collected at 37° C. to match the dissolution experiments.
Intrinsic Dissolution Rate (IDR): Approximately. 10-20 mg of the sample was compressed in a 3 mm disc recess, under 100 kg for 2 minutes, with greaseproof paper on the compression base, to form nondisintegrating discs. The discs were then plugged with a bung so that only one surface was exposed to the media during analysis and transferred to the Sirius inform dissolution apparatus. Analysis was performed at 37° C. in 36 ml water and 4 ml GI media with the pH set to 4.5, for 1 hour with UV spectra collected every 10 seconds. A stir speed of 100 rpm was used with a 20 mm path length probe. The IDR was calculated based on the surface area of the 3 mm disc recess used (7.07 mm2 surface area). XRPD analysis was performed on all samples, both after compression of the material into the disc recess, and post dissolution analysis to observe any change in form. All analysis was performed using XRPD 2.
as §2

Where “and” joins values, the source holds several entries; their conditions need not be identical. Equal values may be shown once. Where a name gives a salt, the structure may show the parent alone. Read-outs that look alike come from different tables or passages of the source.

With `CC(C)c1cccc(C(C)C)c1OCOP(=O)(O)O` [calcium salt of fospropofol (Form I)], the “Solid form (XRPD) after storage, starting from Form I” value in series [1] was “Form II”.

Turning to `NCCN` [Ethylene Diamine], in series [2], the “XRPD Analysis Post Dissolution” value is reported as “Amorphous”; the “Average pH” value was found to be 1.6; the “IDR Average” value is on record as 1.2 mg/min/cm^2; the “IDR Duplicate” value is 1.16 mg/min/cm^2 and 1.29 mg/min/cm^2. Also, in series [3], the “XRPD Analysis Post Dissolution” value was “Amorphous”; the “Average pH” value worked out at 4.5; the “IDR Average” value came out at 0.77 mg/min/cm^2; the “IDR Duplicate” value was 0.76 mg/min/cm^2 and 0.78 mg/min/cm^2.

On to `[Mg]` [Magnesium], for which, in series [2], the “XRPD Analysis Post Dissolution” value is “Amorphous”; the “Average pH” value was 1.8; the “IDR Average” value was found to be 1.6 mg/min/cm^2; the “IDR Duplicate” value was 1.51 mg/min/cm^2 and 1.67 mg/min/cm^2. In series [3], the “XRPD Analysis Post Dissolution” value was “Amorphous”; the “Average pH” value amounted to 4.5; the “IDR Average” value was determined as 0.46 mg/min/cm^2; the “IDR Duplicate” value was 0.47 mg/min/cm^2 and 0.44 mg/min/cm^2.

Take `[Ca]` [Calcium]: in series [2], the “XRPD Analysis Post Dissolution” value is reported as “Amorphous”; the “Average pH” value was 1.8; the “IDR Average” value was 1.2 mg/min/cm^2; the “IDR Duplicate” value was 1.15 mg/min/cm^2 and 1.14 mg/min/cm^2. In addition, in series [3], the “XRPD Analysis Post Dissolution” value is listed as “Amorphous”; the “Average pH” value worked out at 4.5; the “IDR Average” value worked out at 0.44 mg/min/cm^2; the “IDR Duplicate” value is 0.51 mg/min/cm^2 and 0.37 mg/min/cm^2.

Consider Sodium, for which, in series [2], the “Average pH” value is 1.8; the “IDR Average” value turned out to be 43 mg/min/cm^2; the “IDR Duplicate” value is 41.5 mg/min/cm^2 and 44.2 mg/min/cm^2. Also, in series [3], the “Average pH” value was found to be 4.6; the “IDR Average” value is given as 37 mg/min/cm^2; the “IDR Duplicate” value is 38.04 mg/min/cm^2 and 35.67 mg/min/cm^2.

Zinc: in series [2], the “XRPD Analysis Post Dissolution” value is given as “Amorphous”; the “Average pH” value is reported as 1.8; the “IDR Average” value turned out to be 1.3 mg/min/cm^2; the “IDR Duplicate” value was 1.22 mg/min/cm^2 and 1.31 mg/min/cm^2. For the same compound, in series [3], the “XRPD Analysis Post Dissolution” value is “Amorphous”; the “Average pH” value is reported as 4.5; the “IDR Average” value is listed as 0.18 mg/min/cm^2; the “IDR Duplicate” value is 0.19 mg/min/cm^2 and 0.18 mg/min/cm^2.

Source of the values: US12377110B2, “Fospropofol methods and compositions” (Epalex Corporation, priority 2019, dated 2025).
